Experimental findings from patent US20060287353A1, “Method for preventing or treating ischemia-or hemorrhage-induced brain damage using a macrolide compound” (Astellas Pharma Inc., priority 1999, published 2006) are described below.

In assay [1] the test system is rat endothelin-induced MCA occlusion model. Description: Neuroprotective efficacy in the rat endothelin-induced MCA occlusion model (ET-1 model of stroke). The class given is in vivo. The conditions noted are these: five minutes post-lesion, male Sprague Dawley rats, damage assessed three days post-lesion. The procedure: Neuroprotective efficacy of the compound (I) in the rat endothelin-induced MCA occlusion model
The compound (I) was dissolved in a polyoxyethylene-hydrogenated castor oil 60/ethanol (400mg/1 ml) solution and administered at 1 and 3 mg.kg^−1. All drugs and relevant control were administered in a volume of 2 ml. kg^−1. MCA occlusion by the endothelin method was performed on male Sprague Dawley rats (271- 324g) as described in U.S. Pat. No. 5,648,351. All drugs were infused through the i.v. catheter at 1 ml min^−1, five minutes post-lesion. The animals were sacrificed by cardiac infusion under barbiturate anaesthesia. Volume of lesion was calculated from measured areas of damage (as assessed three days post-lesion) using the Trapezoid Rule. Results are presented as volume (mm^3)±SEM. Statistical analysis was performed using ANOVA and post hoc Student-Newman-Keuls test, where p<0.05 was set as an acceptable level for significance.

The nature of assay [2]: Immunosuppressive activity (statement, no method described). The note with it: stated in text without test details.

Turning to `COC1CC(/C=C(\C)C2OC(=O)C3CCCCN3C(=O)C(=O)C3(O)OC(C(OC)CC(C)C/C(C)=C/C(CC(C)=O)C(=O)CC(O)C2C)C(OC)CC3C)CCC1O` (stereo not drawn) [compound (I)], the “protection of the cortex (lesion volume) against vehicle” value in assay [1] (1 mg.kg^-1 i.v., n=14) is given as 61%; in assay [1] (3 mg.kg^-1 i.v., n=9) it was 42%. In addition, in assay [2], the immunosuppressive activity result is “no immunosuppressive activity”.
